Drawing on patent publication US20240300980A1, “HETEROCYCLIC COMPOUNDS AS KRAS INHIBITOR, AND PREPARATION THEREFOR AND USE THEREOF IN TREATMENT” (SHANGHAI KECHOW PHARMA, INC., priority 2021, published 2024), this text covers IC50 for 21 compounds.

For the first experiment, the system named is AGS cells (KRAS^G12D). The experiment in a line: Detection of cell proliferation in vitro by MTT/MTS method (cell activity experiment). Particulars: AGS cells; MTT/MTS; 3 days of drug treatment; read-out: AGS IC50. The experiment is classed as cell-based. The essentials: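 KRAS G12D AGS cells seeded at 1000 per well, compound added 24 h later, 0.5% final DMSO. Viability read after 3 days of treatment by MTT (solubilised in DMSO) or MTS, 4 h, absorbance 490 nm. IC50 from dose–response curves versus DMSO control.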
(Formazan colour is commonly taken as a measure of viable cells.)
As usually defined, the IC50 is the concentration needed to halve the response being measured. Turning to `C#Cc1c(F)ccc2cc(O)cc(-c3ccc4c(N5C[C@H]6CC[C@@H](C5)N6)c(F)c(OC[C@@]56CCCN5C[C@H](F)C6)nc4c3F)c12` [Example 335, 4-(4-((1R,5S)-3,8-diazabicyclo[3.2.1]octan-3-yl)-3,8-difluoro-2-(((2R,7aS)-2-fluorotetrahydro-1H-pyrrolizin-7a(5H)-yl)methoxy)quinolin-7-yl)-5-ethynyl-6-fluoronanhthalen-2-ol], the IC50 amounted to 20.7 nM. Still for that read-out and setting: the figure for `CSc1c(F)ccc2cc(O)cc(-c3ccc4c(N5C[C@H]6CC[C@@H](C5)N6)nc(OC[C@@]56CCCN5C[C@H](F)C6)nc4c3F)c12` [Example 336, 4-(4-((1R,5S)-3,8-diazabicyclo[3.2.1]octan-3-yl)-8-fluoro-2-(((2R,7aS)-2-fluorotetrahvdro-1H-pyrrolizin-7a(5H)-yl)methoxy)quinazolin-7-yl)-6-fluoro-5-(methylthio)naphthalen-2-ol] is 9.9 nM.

The experiment is the same for the next values; noted with them: Homo sapiens, AGS, 72 h, AGS cells; MTT/MTS; 3 days of drug treatment; read-out: AGS IC50.
With `Oc1cc2c(c(-c3ccc4c(N5C[C@H]6CC[C@@H](C5)N6)nc(OC[C@@]56CCCN5C[C@H](F)C6)nc4c3F)c1)C=CCC2` [Example 305, 4-(4-((1R,5S)-3,8-diazabicyclo[3.2.1]octan-3-yl)-8-fluoro-2-(((2R,7aS)-2-fluorotetrahydro-1H-pyrrolizin-7a(5H)-yl)methoxy)quinazolin-7-yl)-7,8-dihydronaphthalen-2-ol], the IC50 amounted to 102 nM. The same measure, in the same setting: the figure for `Oc1cc2c(c(-c3ccc4c(N5C[C@H]6CC[C@@H](C5)N6)nc(OC[C@@]56CCCN5C[C@H](F)C6)nc4c3F)c1)C=CC2` [Example 306, 4-(4-((1R,5S)-3,8-diazabicyclo[3.2.1]octan-3-yl)-8-fluoro-2-(((2R,7aS)-2-fluorotetrahydro-1H-pyrrolizin-7a(5H)-yl)methoxy)quinazolin-7-yl)-1H-inden-6-ol] is 366 nM; for `C#Cc1c(F)ccc2cc(O)cc(-c3ccc4c(N5C[C@H]6CC[C@@H](C5)N6)nc(OC[C@@]56CCCN5C[C@H](F)C6)nc4c3OC3CC3)c12` [Example 327, 4-(4-((1R,5S)-3,8-diazabicyclo[3.2.1]octan-3-yl)-8-cyclopropoxy-2-(((2R,7aS)-2-fluorotetrahydro-1H-pyrrolizin-7a(5H)-yl)methoxy)quinazolin-7-yl)-5-ethynyl-6-fluoronaphthalen-2-ol] it is 230 nM.

As to `C#Cc1c(F)ccc2cc(O)cc(-c3ccc4c(N5C[C@H]6CC[C@@H](C5)N6)nc(OC[C@@]56CCCN5C[C@H](F)C6)nc4c3O)c12` [Example 328, 4-((1R,5S)-3,8-diazabicyclo[3.2.1]octan-3-yl)-7-(8-ethynyl-7-fluoro-3-hydroxynaphthalen-1-yl)-2-(((2R,7aS)-2-fluorotetrahydro-1H-pyrrolizin-7a(5H)-yl)methoxy)quinazolin-8-ol], the IC50 turned out to be 8910 nM. On the same count and under the same terms, the figure for `Oc1cc(-c2c(Cl)cc3c(N4C[C@H]5CC[C@@H](C4)N5)nc(OC[C@@]45CCCN4C[C@H](F)C5)nc3c2OC2CC2)c2ccccc2c1` [Example 329, 4-(4-((1R,5S)-3,8-diazabicyclo[3.2.1]octan-3-yl)-6-chloro-8-cyclopropoxy-2-(((2R,7aS)-2-fluorotetrahydro-1H-pyrrolizin-7a(5H)-yl)methoxy)quinazolin-7-yl)naphthalen-2-ol] is 260 nM; for `C#Cc1c(F)ccc2cc(O)cc(-c3c(Cl)cc4c(N5C[C@H]6CC[C@@H](C5)N6)nc(OC[C@@]56CCCN5C[C@H](F)C6)nc4c3OC3CC3)c12` [Example 330, 4-(4-((1R,5S)-3,8-diazabicyclo[3.2.1]octan-3-yl)-6-chloro-8-cyclopropoxy-2-(((2R,7aS)-2-fluorotetrahydro-1H-pyrrolizin-7a(5H)-yl)methoxy)quinazolin-7-yl)-5-ethynyl-6-fluoronaphthalen-2-ol] it is 195 nM; for `C#Cc1c(F)ccc2cc(O)cc(-c3c(Cl)cc4c(N5C[C@H]6CC[C@@H](C5)N6)nc(OC[C@@]56CCCN5C[C@H](F)C6)nc4c3OCC(F)(F)F)c12` [Example 331, 4-(4-((1R,5S)-3,8-diazabicyclo[3.2.1]octan-3-yl)-6-chloro-2-(((2R,7aS)-2-fluorotetrahydro-1H-pyrrolizin-7a(5H)-yl)methoxy)-8-(2,2,2-trifluoroethoxy)quinazolin-7-yl)-5-ethynyl-6-fluoronaphthalen-2-ol] it is 823 nM.

Turning to `C#Cc1c(F)ccc2cc(O)cc(-c3ncc4c(N5C[C@H]6CC[C@@H](C5)N6)nc(OC[C@@]56CCCN5C[C@H](F)C6)nc4c3O)c12` [Example 332, 4-((1R,5S)-3,8-diazabicyclo[3.2.1]octan-3-yl)-7-(8-ethynyl-7-fluoro-3-hydroxynaphthalen-1-yl)-2-(((2R,7aS)-2-fluorotetrahydro-1H-pyrrolizin-7a(5H)-yl)methoxy)pyrido[4,3-d]pyrimidin-8-ol], the IC50 is more than 2500 nM. On to `C#Cc1c(F)ccc2cc(O)cc(-c3ncc4c(N5C[C@H]6CC[C@@H](C5)N6)nc(OC[C@@]56CCCN5C[C@H](F)C6)nc4c3OCC(F)(F)F)c12` [Example 333, 4-(4-((1R,5S)-3,8-diazabicyclo[3.2.1]octan-3-yl)-2-(((2R,7aS)-2-fluorotetrahydro-1H-pyrrolizin-7a(5H)-yl)methoxy)-8-(2,2,2-trifluoroethoxy)pyrido[4,3-d]pyrimidin-7-yl)-5-ethynyl-6-fluoronaphthalen-2-ol], for which the IC50 is 455 nM. As for `C#Cc1c(F)ccc2cc(O)cc(-c3ncc4c(N5C[C@H]6CC[C@@H](C5)N6)nc(OC[C@@]56CCCN5C[C@H](F)C6)nc4c3OC3CC3)c12` [Example 334, 4-(4-((1R,5S)-3,8-diazabicyclo[3.2.1]octan-3-yl)-8-cyclopropoxy-2-(((2R,7aS)-2-fluorotetrahydro-1H-pyrrolizin-7a(5H)-yl)methoxy)pyrido[4,3-d]pyrimidin-7-yl)-5-ethynyl-6-fluoronaphthalen-2-ol], the half-inhibitory concentration (IC50) stood at 125 nM.

Consider `C#Cc1nccc2cc(O)cc(-c3ncc4c(N5C[C@H]6CC[C@@H](C5)N6)nc(OC[C@@]56CCCN5C[C@H](F)C6)nc4c3F)c12` [Example 339, 8-(4-((1R,5S)-3,8-diazabicyclo[3.2.1]octan-3-yl)-8-fluoro-2-(((2R,7aS)-2-fluorotetrahydro-1H-pyrrolizin-7a(5H)-yl)methoxy)pyrido[4,3-d]pyrimidin-7-yl)-1-ethynylisoquinolin-6-ol], for which the IC50 is 15 nM. Same read-out and setting: the same measure for `CCc1nccc2cc(O)cc(-c3ncc4c(N5C[C@H]6CC[C@@H](C5)N6)nc(OC[C@@]56CCCN5C[C@H](F)C6)nc4c3F)c12` [Example 340, 8-(4-((1R,5S)-3,8-diazabicyclo[3.2.1]octan-3-yl)-8-fluoro-2-(((2R,7aS)-2-fluorotetrahydro-1H-pyrrolizin-7a(5H)-yl)methoxy)pyrido[4,3-d]pyrimidin-7-yl)-1-ethylisoquinolin-6-ol]: 20 nM; for `CSc1nccc2cc(O)cc(-c3ncc4c(N5C[C@H]6CC[C@@H](C5)N6)nc(OC[C@@]56CCCN5C[C@H](F)C6)nc4c3F)c12` [Example 341, 8-(4-((1R,5S)-3,8-diazabicyclo[3.2.1]octan-3-yl)-8-fluoro-2-(((2R,7aS)-2-fluorotetrahydro-1H-pyrrolizin-7a(5H)-yl)methoxy)pyrido[4,3-d]pyrimidin-7-yl)-1-(methylthio)isoquinolin-6-ol]: 25 nM; for `Cc1nccc2cc(O)cc(-c3ncc4c(N5C[C@H]6CC[C@@H](C5)N6)nc(OC[C@@]56CCCN5C[C@H](F)C6)nc4c3F)c12` [Example 343, 8-(4-((1R,5S)-3,8-diazabicyclo[3.2.1]octan-3-yl)-8-fluoro-2-(((2R,7aS)-2-fluorotetrahydro-1H-pyrrolizin-7a(5H)-yl)methoxy)pyrido[4,3-d]pyrimidin-7-yl)-1-methylisoquinolin-6-ol]: 17 nM. Regarding `CCc1nccc2cc(O)cc(-c3ccc4c(N5C[C@H]6CC[C@@H](C5)N6)nc(OC[C@@]56CCCN5C[C@H](F)C6)nc4c3F)c12` [Example 344, 8-(4-((1R,5S)-3,8-diazabicyclo[3.2.1]octan-3-yl)-8-fluoro-2-(((2R,7aS)-2-fluorotetrahydro-1H-pyrrolizin-7a(5H)-yl)methoxy)quinazolin-7-yl)-1-ethylisoquinolin-6-ol], the IC50 worked out at 35 nM. On the same count and under the same terms, the figure for `CCc1csc2cc(O)cc(-c3ncc4c(N5C[C@H]6CC[C@@H](C5)N6)nc(OC[C@@]56CCCN5C[C@H](F)C6)nc4c3F)c12` [Example 348, 4-(4-((1R,5S)-3,8-diazabicyclo[3.2.1]octan-3-yl)-8-fluoro-2-(((2R,7aS)-2-fluorotetrahydro-1H-pyrrolizin-7a(5H)-yl)methoxy)pyrido[4,3-d]pyrimidin-7-yl)-3-ethylbenzo[b]thiophen-6-ol] is 85 nM; for `CCc1ccc2cc(O)cc(-c3ncc4c(N5C[C@H]6CC[C@@H](C5)N6)nc(OC[C@@]56CCCN5C[C@H](F)C6)nc4c3F)n12` [Example 351, 5-(4-((1R,5S)-3,8-diazabicyclo[3.2.1]octan-3-yl)-8-fluoro-2-(((2R,7aS)-2-fluorotetrahydro-1H-pyrrolizin-7a(5H)-yl)methoxy)pyrido[4,3-d]pyrimidin-7-yl)-3-ethylindolizin-7-ol] it is 30 nM; for `CSC1CCc2cc(O)cc(-c3ncc4c(N5C[C@H]6CC[C@@H](C5)N6)nc(OC[C@@]56CCCN5C[C@H](F)C6)nc4c3F)c21` (stereo partly drawn) [Example 354, 7-(4-((1R,5S)-3,8-diazabicyclo[3.2.1]octan-3-yl)-8-fluoro-2-(((2R,7aS)-2-fluorotetrahydro-1H-pyrrolizin-7a(5H)-yl)methoxy)pyrido[4,3-d]pyrimidin-7-yl)-1-(methylthio)-2,3-dihydro-1H-inden-5-ol] it is 25 nM. `CCC1c2c(-c3ncc4c(N5C[C@H]6CC[C@@H](C5)N6)nc(OC[C@@]56CCCN5C[C@H](F)C6)nc4c3F)cc(O)cc2C2CC21` (stereo partly drawn) [Example 355, 5-(4-((1R,5S)-3,8-diazabicyclo[3.2.1]octan-3-yl)-8-fluoro-2-(((2R,7aS)-2-fluorotetrahydro-1H-pyrrolizin-7a(5H)-yl)methoxy)pyrido[4,3-d]pyrimidin-7-yl)-6-ethyl-1,1a,6,6a-tetrahydrocyclopropa[a]inden-3-ol]: the IC50 is 20 nM.
